Experimental data taken from patent US12458605B2, “Lipid nanoparticle” (National University Corporation Hokkaido University, priority 2020, dated 2025).

Experiment: siRNA/mRNA encapsulation rate by Ribogreen reagent (section IV)
Format: physicochemical
Conditions: for % siRNA encapsulation: F7siRNA-loaded LNP, 50:10:38.5:1.5, N/P ratio 6; for % mRNA encapsulation: FlucmRNA-loaded LNP, 50:10:38.5:1.5
In short: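 Encapsulation % was calculated as (total − surface nucleic acid)/total × 100, with both values measured by RiboGreen fluorescence at 485/528 nm. Total RNA was read on LNPs lysed with 1% Triton X-100 at 1.2 μg/mL, and surface RNA on intact LNPs at 8 μg/mL in TE buffer. Concentrations came from a 0-2.5 μg/mL Triton-containing calibration curve.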

| Structure (SMILES) | % siRNA encapsulation [%] | % mRNA encapsulation [%] |
| --- | --- | --- |
| CCCCCCCCC(CCCCCC)C(=O)OCCCCCCC(O)(CCCCCCOC(=O)C(CCCCCC)CCCCCCCC)CCCCOC(=O)C1CCN(C)CC1 (stereo not shown) [CL15F6] | 100.5 | 99.69 |
| CCCN(CCC)CCCCC(O)(CCCCCCOC(=O)C(CCC(C)CC(C)(C)C)C(C)CC(C)(C)C)CCCCCCOC(=O)C(CCC(C)CC(C)(C)C)C(C)CC(C)(C)C (stereo not shown) [CL4G6, 7-(4-(dipropylamino)butyl)-7-hydroxytridecan-1,13-diyl bis(2-(4.4-dimethylpentan-2-yl)-5,7,7-trimethyloctanoate)] | 100.1 | 99.8 |
